Tests used:
[1] = target: Prostaglandin F2-alpha receptor (Homo sapiens, UniProt P43088); assay: Agonist activity at human prostaglandin FP receptor expressed in CHO cells assessed as increase in intracellular calcium level by Fura 2-AM dye based fluorescence assay; type: functional, cell-based
[2] = target: T1, Prostaglandin E2 receptor EP3 subtype (Homo sapiens, UniProt P43115); assay: Agonist activity at human EP3 receptor expressed in CHO cells assessed as increase in intracellular calcium level by Fura 2-AM dye based fluorescence assay; type: functional, cell-based
T1 sequence (P43115 whole entry): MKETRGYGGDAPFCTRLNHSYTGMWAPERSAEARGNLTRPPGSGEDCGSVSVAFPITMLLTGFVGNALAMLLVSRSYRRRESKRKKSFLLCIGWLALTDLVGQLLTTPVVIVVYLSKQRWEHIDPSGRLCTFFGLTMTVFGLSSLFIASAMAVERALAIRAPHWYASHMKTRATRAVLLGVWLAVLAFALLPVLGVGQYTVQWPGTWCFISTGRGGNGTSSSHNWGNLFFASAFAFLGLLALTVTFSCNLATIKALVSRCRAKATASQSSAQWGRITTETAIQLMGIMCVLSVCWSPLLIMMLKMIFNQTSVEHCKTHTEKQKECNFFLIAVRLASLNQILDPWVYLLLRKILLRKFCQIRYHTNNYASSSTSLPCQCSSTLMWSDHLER

[3] = target: Prostacyclin receptor (Homo sapiens, UniProt P43119); assay: Agonist activity at human IP receptor expressed in CHO cells assessed as increase in intracellular cAMP level by HTRF method; type: cell-based
Prostacyclin receptor, sequence (P43119 whole entry): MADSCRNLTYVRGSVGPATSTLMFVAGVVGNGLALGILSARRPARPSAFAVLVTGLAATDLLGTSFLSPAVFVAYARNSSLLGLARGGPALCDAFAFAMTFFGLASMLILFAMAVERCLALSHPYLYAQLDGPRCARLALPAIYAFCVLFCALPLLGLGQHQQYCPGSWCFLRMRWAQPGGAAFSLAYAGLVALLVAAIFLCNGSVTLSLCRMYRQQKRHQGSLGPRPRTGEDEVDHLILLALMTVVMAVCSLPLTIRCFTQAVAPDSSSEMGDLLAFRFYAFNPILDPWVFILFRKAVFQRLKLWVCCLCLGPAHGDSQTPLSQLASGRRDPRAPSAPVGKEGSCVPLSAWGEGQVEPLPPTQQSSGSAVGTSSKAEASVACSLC

[4] = target: Prostaglandin E2 receptor EP4 subtype (Homo sapiens, UniProt P35408); assay: Agonist activity at EP4 receptor (unknown origin)
Prostaglandin E2 receptor EP4 subtype, sequence (P35408 whole entry): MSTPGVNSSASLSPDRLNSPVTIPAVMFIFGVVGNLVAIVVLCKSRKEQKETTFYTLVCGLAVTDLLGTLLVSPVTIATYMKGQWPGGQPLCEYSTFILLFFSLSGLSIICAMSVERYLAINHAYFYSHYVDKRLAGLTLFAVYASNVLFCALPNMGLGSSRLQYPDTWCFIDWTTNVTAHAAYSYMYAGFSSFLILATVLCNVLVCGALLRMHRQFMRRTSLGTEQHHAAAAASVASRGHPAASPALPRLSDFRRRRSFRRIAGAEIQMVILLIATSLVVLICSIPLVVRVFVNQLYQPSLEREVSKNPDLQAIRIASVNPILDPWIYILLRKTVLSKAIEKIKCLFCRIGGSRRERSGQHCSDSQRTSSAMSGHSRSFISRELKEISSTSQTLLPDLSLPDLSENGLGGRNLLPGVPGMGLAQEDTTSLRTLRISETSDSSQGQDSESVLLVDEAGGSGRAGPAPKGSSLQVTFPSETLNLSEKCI

[5] = target: Prostaglandin E2 receptor EP2 subtype (Homo sapiens, UniProt P43116); assay: Agonist activity at EP2 receptor (unknown origin)
Prostaglandin E2 receptor EP2 subtype, sequence (P43116 whole entry): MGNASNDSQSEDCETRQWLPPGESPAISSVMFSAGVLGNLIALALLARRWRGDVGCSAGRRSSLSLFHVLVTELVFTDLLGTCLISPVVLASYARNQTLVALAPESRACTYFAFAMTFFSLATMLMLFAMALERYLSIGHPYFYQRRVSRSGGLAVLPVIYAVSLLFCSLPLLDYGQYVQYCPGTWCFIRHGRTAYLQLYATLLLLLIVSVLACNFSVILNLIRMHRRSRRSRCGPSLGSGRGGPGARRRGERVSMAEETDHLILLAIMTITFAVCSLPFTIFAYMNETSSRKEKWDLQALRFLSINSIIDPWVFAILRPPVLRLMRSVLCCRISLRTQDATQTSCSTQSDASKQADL

Prostaglandin F2-alpha receptor, sequence (P43088 whole entry): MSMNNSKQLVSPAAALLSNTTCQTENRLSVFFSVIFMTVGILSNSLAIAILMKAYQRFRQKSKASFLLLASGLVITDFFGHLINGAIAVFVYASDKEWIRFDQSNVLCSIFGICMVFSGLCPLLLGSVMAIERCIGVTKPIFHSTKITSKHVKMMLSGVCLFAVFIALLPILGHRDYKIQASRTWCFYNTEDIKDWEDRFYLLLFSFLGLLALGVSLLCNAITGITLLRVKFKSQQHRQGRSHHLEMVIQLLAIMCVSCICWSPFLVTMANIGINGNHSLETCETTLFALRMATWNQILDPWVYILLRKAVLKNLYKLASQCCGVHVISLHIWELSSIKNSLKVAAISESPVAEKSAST

Row | EC50 [1] [nM] | EC50 [2] [nM] | EC50 [3] [nM] | EC50 [4] [nM] | EC50 [5] [nM] | SMILES
1 | 110 | 130 | > 10000 | – | – | O=C(O)CCCC[C@@H]1CC[C@@H]2[C@@H](/C=C/[C@@H](O)COc3ccccc3)[C@H](O)C[C@@H]2OC1
2 | 640 | 4700 | > 10000 | – | – | O=C(O)CCCC1=CC[C@@H]2[C@@H](/C=C/[C@@H](O)COc3ccccc3)[C@H](O)C[C@@H]2OC1
3 | 530 | 2700 | > 10000 | – | – | O=C(O)CCC1=CC[C@@H]2[C@@H](/C=C/[C@@H](O)COc3ccccc3)[C@H](O)C[C@@H]2OC1
4 | 110 | 4800 | > 10000 | – | – | O=C(O)CC[C@H]1CC[C@@H]2[C@@H](/C=C/[C@@H](O)COc3ccccc3)[C@H](O)C[C@@H]2OC1
5 | 43 | 540 | > 10000 | – | – | O=C(O)CCCC[C@H]1CC[C@@H]2[C@@H](/C=C/[C@@H](O)COc3ccccc3)[C@H](O)C[C@@H]2OC1
6 | 3.6 | 3400 | > 10000 | – | – | O=C(O)CCC/C=C\C[C@@H]1[C@@H](/C=C/[C@@H](O)COc2cccc(C(F)(F)F)c2)[C@H](O)C[C@@H]1O [FLUPROSTENOL]
7 | 73 | 13 | > 10000 | – | – | O=C(O)CCCCC1=CC[C@@H]2[C@@H](/C=C/[C@@H](O)COc3ccccc3)[C@H](O)C[C@@H]2OC1

The remaining lines, values behind:

Row | SMILES | EC50 [1] [nM] | EC50 [2] [nM] | EC50 [3] [nM] | EC50 [4] [nM] | EC50 [5] [nM]
8 | O=C(O)CC[C@@H]1CC[C@@H]2[C@@H](/C=C/[C@@H](O)COc3ccccc3)[C@H](O)C[C@@H]2OC1 | 1000 | 870 | > 10000 | – | –
9 | O=C(O)CCC[C@@H]1CC[C@@H]2[C@@H](/C=C/[C@@H](O)COc3ccccc3)[C@H](O)C[C@@H]2O1 | 4.1 | 4.1 | 26 | – | –
10 | O=C(O)CCC[C@H]1CC[C@@H]2[C@@H](/C=C/[C@@H](O)COc3ccccc3)[C@H](O)C[C@@H]2OC1 | 28 | 4 | > 10000 | > 10000 | > 10000
11 | O=C(O)CCCCCC1=CC[C@@H]2[C@@H](/C=C/[C@@H](O)COc3ccccc3)[C@H](O)C[C@@H]2OC1 | 880 | 6400 | > 10000 | – | –
12 | O=C(O)CCC/C=C\C[C@H]1C(=O)C[C@@H](O)[C@@H]1/C=C/[C@@H](O)COc1ccccc1 | 16 | 0.89 | – | – | –
13 | O=C(O)CCC[C@@H]1CC[C@@H]2[C@@H](/C=C/[C@@H](O)COc3ccccc3)[C@H](O)C[C@@H]2OC1 | 280 | 2.3 | > 10000 | – | –
14 | O=C(O)CCC[C@H]1CC[C@@H]2[C@@H](/C=C/[C@@H](O)COc3ccccc3)[C@H](O)C[C@@H]2O1 | 7.1 | 3.6 | – | – | –
15 | O=C(O)CC[C@H]1CCC[C@@H]2[C@@H](/C=C/[C@@H](O)COc3ccccc3)[C@H](O)C[C@@H]2O1 | 22 | 18 | > 10000 | – | –
16 | O=C(O)CC[C@@H]1CCC[C@@H]2[C@@H](/C=C/[C@@H](O)COc3ccccc3)[C@H](O)C[C@@H]2O1 | 3.8 | 27 | 2000 | – | –

Reference: ChEMBL document CHEMBL3870361, “Discovery of Novel Seven-Membered Prostacyclin Analogues as Potent and Selective Prostaglandin FP and EP3 Dual Agonists” (ACS Med Chem Lett, 2017)
